According to patent US8802082B2, “Rhodamine derivatives for photodynamic diagnosis and treatment” (Université de Montreal, priority 1999, dated 2014):

Legend:
[1] = tested on: K-562 cell line; assay: In vitro phototoxicity, cell viability in the K-562 cell line procedure (argon ion laser 514.5 nm); type: cell-based
Description: To ascertain the photochemotherapeutic potential of 4, 5-dibromorhodamine 110 n-butyl ester hydrobromide (DBBE), in vitro phototoxicity was evaluated in the K-562 cell line procedure described. The cells were incubated with increasing concentrations of DBBE and the cell viability was measured at different time points following photodynamic therapy.
The photo toxicity in vitro of rhodamine B n-butyl ester (RBBE) was evaluated in the K-562 cell line procedure, in order to assess its photochemotherapeutic potential. Comparison was made to the induced phototoxicity of rhodamine 123 (RH123) and of rhodamine nB-butyl ester hydrochloride. Cell viability was evaluated 2 and 20 hours after photodynamic therapy. […] Rhodamine 123 has no effect on cell viability, even at exposures of 5 J/cm^2. Phototoxicity of 4,5-dibromorhodamine 110 n-butyl ester hydrobromide and rhodamine B n-butyl ester hydrochloride were only assessed against the cell line K562. However, we anticipate that their activity will be similar against T cells.

[2] = tested on: normal mouse long term culture of bone marrow and hematopoietic colonies; assay: Phototoxicity against hematopoietic progenitor cell cultures (long term culture of bone marrow, semi-solid colony assays); type: cell-based
From the text: However, as reported for rhodamine 123, the LTC (Long Term Culture) establishment is more sensitive to the dyes but the number of viable committed precursor and stem cells remains unaffected. […] This is in agreement with results obtained previously in other laboratories using rhodamine 123.

Row | Compound | cell viability after photodynamic therapy ([1]; 10 μg/ml, 0.5 J/cm^2 at 514.5 nm, less than 24 hours after irradiation) | establishment of normal mouse long term culture of bone marrow and formation of hematopoietic colonies in semi-solid assays after photodynamic therapy [2] | cell viability of K562 cells after photodynamic therapy ([1]; 10 µg/ml, 5 J/cm^2 argon ion laser 514.5 nm, less than 20 hours after irradiation) | effect on cell viability ([1]; even at exposures of 5 J/cm^2)
1 | Br.CCCCOC(=O)c1ccccc1-c1c2ccc(=N)c(Br)c-2oc2c(Br)c(N)ccc12 [DBBE, 4,5-dibromorhodamine 110 (2-(4,5-dibromo-6-amino-3-imino-3H-xanthen-9-yl)-benzoic acid) n-butyl ester hydrobromide] | completely suppress | minimally impaired | – | –
2 | CCCCOC(=O)c1ccccc1-c1c2ccc(=NCC)cc-2oc2cc(N(CC)CC)ccc12.Cl [RBBE, Rhodamine B n-butyl ester (2-(6-diethyl amino-3-ethyl imino-3H-xanthen-9-yl)-benzoic acid) n-butyl diester hydrochloride] | – | minimally impaired | significantly suppress | –
3 | COC(=O)c1ccccc1-c1c2ccc(=N)cc-2oc2cc(N)ccc12.Cl [Rhodamine 123, Rhodamine 123 (2-(6-amino-3-imino-3H-xanthen-9-yl)benzoic acid methyl ester) hydrochloride, reference compound] | – | minimally impaired | – | no effect
